Where a name gives a salt, the structure may show the parent alone.
Target: Hsp82 (Saccharomyces cerevisiae, UniProt P02829)
Assay: PK/LDH enzyme coupling test of the ATPase activity of Hsp82 (NADH decrease at 340 nm)
Type: biochemical
Conditions: 1 μM Hsp82, 250 μM ATP, 37° C., pyruvate kinase/lactate dehydrogenase coupling, read-out: Hsp82 ATPase IC50
Text: The formation of ADP due to the ATPase activity of Hsp82 was utilized for developing another method of evaluating the enzymatic activity of this enzyme by application of an enzyme coupling system employing pyruvate kinase (PK) and lactate dehydrogenase (LDH). In this spectrophotometric method of the kinetic type, the PK catalyses the formation of ATP and of pyruvate starting from phosphoenol-pyruvate (PEP) and the ADP produced by HSP82. The pyruvate that formed, an LDH substrate, is then converted to lactate in the presence of NADH. In this case, the decrease in the concentration of NADH, measured by the decrease in absorbance at wavelength of 340 nm, is proportional to the concentration of ADP produced by HSP82. […] This mixture is preincubated at 37° C. for 30 min before adding 3.77 units of LDH and 3.77 units of PK. The reaction is started by adding the product to be evaluated, in variable concentrations, and of Hsp82, at a concentration of 1 μM. The enzymatic activity of Hsp82 is then measured continuously in a microplate reader at 37° C., at wavelength of 340 nm. The initial reaction rate is found by measuring the slope of the tangent at the origin of the recorded curve. The enzymatic activity is expressed as μM of ADP formed per minute. The effect of the various products tested is expressed as percentage of inhibition of ATPase activity, using the following codes: • A: […]

Chain of Hsp82 (P02829 whole entry): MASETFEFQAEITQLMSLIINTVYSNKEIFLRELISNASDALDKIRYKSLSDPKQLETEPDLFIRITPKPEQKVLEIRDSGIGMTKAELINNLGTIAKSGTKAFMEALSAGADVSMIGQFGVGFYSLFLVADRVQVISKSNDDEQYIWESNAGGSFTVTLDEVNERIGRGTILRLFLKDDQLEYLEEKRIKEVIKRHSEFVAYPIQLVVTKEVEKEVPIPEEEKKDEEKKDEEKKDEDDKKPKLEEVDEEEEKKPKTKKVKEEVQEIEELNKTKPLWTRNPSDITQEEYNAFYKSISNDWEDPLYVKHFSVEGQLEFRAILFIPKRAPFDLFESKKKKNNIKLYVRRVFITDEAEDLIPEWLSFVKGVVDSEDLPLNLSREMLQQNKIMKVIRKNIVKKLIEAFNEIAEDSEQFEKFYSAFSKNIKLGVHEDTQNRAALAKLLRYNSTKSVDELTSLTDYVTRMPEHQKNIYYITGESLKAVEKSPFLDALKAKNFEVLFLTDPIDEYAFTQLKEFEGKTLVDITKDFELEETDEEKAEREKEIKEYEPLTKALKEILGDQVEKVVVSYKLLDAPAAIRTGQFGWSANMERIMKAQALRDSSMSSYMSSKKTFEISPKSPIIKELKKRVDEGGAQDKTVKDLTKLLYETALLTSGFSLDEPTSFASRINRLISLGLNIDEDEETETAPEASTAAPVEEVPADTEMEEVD

Row | IC50 [µM] | SMILES
1 | 10 to 100 | OC1c2ccccc2-c2c(-c3nc4cnccc4[nH]3)cccc21 (racemic) [Example 3, 4-(3H-imidazo[4,5-c]pyridin-2-yl)-9H-fluoren-9(R,S)-ol]
2 | 10 to 100 | O=C1c2ccccc2-c2c1cccc2-c1nc2ccc(F)cc2[nH]1 [Example 69, 4-(6-fluoro-1H-benzimidazol-2-yl)-fluoren-9-one]
3 | 1 to 10 | O=C(NC1c2ccccc2-c2c(-c3nc4ccncc4[nH]3)cccc21)c1cc(O)nc(O)n1 (stereo not drawn) [Example 88, [4-(3H-imidazo[4,5-c]pyridin-2-yl)-9H-fluoren-9-yl]amide of 2,6-dihydroxypyrimidine-4-carboxylic acid]
4 | 10 to 100 | ON=C1c2ccccc2-c2c1cccc2-c1nc2ccccc2[nH]1 (racemic) [Example 68, 4-(1H-benzimidazol-2-yl)-fluoren-9-one oxime (Z,E)]
5 | 10 to 100 | c1ccc2c(c1)-c1c(-c3nc4cnccc4[nH]3)cccc1C2NCc1ccc2cc[nH]c2c1 (racemic) [Example 22, N-[4-(3H-imidazo[4,5-c]pyridin-2-yl)-9H-fluoren-9(R,S)-yl]-(1H-indol-6-ylmethyl)-amine]
6 | < 1 | O=C(NC1c2ccccc2-c2c(-c3nc4ccncc4[nH]3)cccc21)c1ccc2[nH]nnc2c1 (racemic) [Example 41, [4-(3H-imidazo[4,5-c]pyridin-2-yl)-9H-fluoren-9(R,S)-yl]amide trifluoroacetate of 1H-benzotriazole-5-carboxylic acid]
7 | 1 to 10 | O=C(NC1c2ccccc2-c2c(-c3nc4ccncc4[nH]3)cccc21)c1cc(Cl)cc2[nH]cnc12 (racemic) [Example 44, [4-(3H-imidazo[4,5-c]pyridin-2-yl)-9H-fluoren-9(R,S)-yl]amide of 6-chloro-1H-benzimidazole-4-carboxylic acid]
8 | 1 to 10 | COc1ccc2nc(-c3cccc4c3-c3ccccc3C4NC(=O)c3ccncc3)[nH]c2c1 (racemic) [Example 106, N-[4-(6-methoxy-1H-benzimidazol-2-yl)-9H-fluoren-9(R,S)-yl]-isonicotinamide]
9 | 1 to 10 | Cc1ccc2c(C(=O)NC3c4ccccc4-c4c(-c5nc6ccncc6[nH]5)cccc43)cccc2n1 (stereo not drawn) [Example 90, [4-(3H-imidazo[4,5-c]pyridin-2-yl)-9H-fluoren-9-yl]amide of 2-methyl-quinoline-5-carboxylic acid]
10 | 10 to 100 | O=C(NCc1ccco1)NC1c2ccccc2-c2c(-c3nc4ccncc4[nH]3)cccc21 (racemic) [Example 74, 1-furan-2-ylmethyl-3-[4-(3H-imidazo[4,5-c]pyridin-2-yl)-9H-fluoren-9(R,S)-yl]-urea]
11 | 1 to 10 | ON=C1c2ccccc2-c2c1cccc2-c1nc2cnccc2[nH]1 (mixture of isomers) [Example 5, 4-(3H-imidazo[4,5-c]pyridin-2-yl)-fluoren-9-one oxime (Z, E)]
12 | 1 to 10 | O=C(NC1c2ccccc2-c2c(-c3nc4ccncc4[nH]3)cccc21)c1ccncc1Br (racemic) [Example 98, 3-bromo-N-[4-(3H-imidazo[4,5-c]pyridin-2-yl)-9H-fluoren-9(R,S)-yl]-isonicotinamide]
13 | 1 to 10 | NC(=O)NCC(=O)NC1c2ccccc2-c2c(-c3nc4cnccc4[nH]3)cccc21 (racemic) [Example 58, N-[4-(3H-imidazo[4,5-c]pyridin-2-yl)-9H-fluoren-9(R,S)-yl]-2-ureido-acetamide]
14 | < 1 | O/N=C1/c2ccccc2-c2c1cccc2-c1nc2cnccc2[nH]1 [Example 23, 4-(3H-imidazo[4,5-c]pyridin-2-yl)-fluoren-9-one oxime (E)]
15 | 1 to 10 | O=C(NC1c2ccccc2-c2c(-c3nc4ccncc4[nH]3)cccc21)c1cc(O)nc2ccccc12 (racemic) [Example 31, [4-(3H-imidazo[4,5-c]pyridin-2-yl)-9H-fluoren-9(R,S)-yl]amide of 2-hydroxy-quinoline-4-carboxylic acid]
16 | 10 to 100 | O=C(N[C@H]1c2ccccc2-c2c(-c3nc4ccncc4[nH]3)cccc21)c1cccc2ncccc12 (single isomer, unassigned) [Example 14B]

Row | IC50 [µM] | SMILES
17 | 1 to 10 | O=C(NC1c2ccccc2-c2c(-c3nc4ccncc4[nH]3)cccc21)c1ccnc(N2CCCC2)c1 (racemic) [Example 120, N-[4-(3H-imidazo[4,5-c]pyridin-2-yl)-9H-fluoren-9(R,S)-yl]-2-pyrrolidin-1-yl-isonicotinamide]
18 | 10 to 100 | Cc1noc(C)c1NC(=O)NC1c2ccccc2-c2c(-c3nc4ccncc4[nH]3)cccc21 (racemic) [Example 76, 1-(3,5-dimethyl-isoxazol-4-yl)-3-[4-(3H-imidazo[4,5-c]pyridin-2-yl)-9H-fluoren-9(R,S)-yl]-urea]
19 | 10 to 100 | c1ccc(CCNC2c3ccccc3-c3c(-c4nc5cnccc5[nH]4)cccc32)cc1 (racemic) [Example 16, N-[4-(3H-imidazo[4,5-c]pyridin-2-yl)-9H-fluoren-9(R,S)-yl]-phenethyl-amine]
20 | < 1 | Nc1cc(C(=O)NC2c3ccccc3-c3c(-c4nc5ccncc5[nH]4)cccc32)ccn1 (racemic) [Example 73, 2-amino-N-[4-(3H-imidazo[4,5-c]pyridin-2-yl)-9H-fluoren-9(R,S)-yl]-isonicotinamide]
21 | 1 to 10 | COc1ccc(CC(=O)NC2c3ccccc3-c3c(-c4nc5cnccc5[nH]4)cccc32)cc1 (racemic) [Example 27, N-[4-(3H-imidazo[4,5-c]pyridin-2-yl)-9H-fluoren-9(R,S)-yl]-2-(4-methoxy-phenyl)-acetamide]
22 | 1 to 10 | N#Cc1cc(C(=O)NC2c3ccccc3-c3c(-c4nc5ccncc5[nH]4)cccc32)ccn1 (racemic) [Example 105, 2-cyano-N-[4-(3H-imidazo[4,5-c]pyridin-2-yl)-9H-fluoren-9(R,S)-yl]-isonicotinamide]
23 | 1 to 10 | O=C1CCc2c1cccc2C(=O)NC1c2ccccc2-c2c(-c3nc4cnccc4[nH]3)cccc21 (racemic) [Example 60, [4-(3H-imidazo[4,5-c]pyridin-2-yl)-9H-fluoren-9(R,S)-yl]amide of 1-oxo-indan-4-carboxylic acid]
24 | 1 to 10 | O=C(NC1c2ccccc2-c2c(-c3nc4ccncc4[nH]3)cccc21)C(=O)c1ccoc1 (racemic) [Example 36, 2-furan-3-yl-N-[4-(3H-imidazo[4,5-c]pyridin-2-yl)-9H-fluoren-9(R,S)-yl]-2-oxo-acetamide]
25 | 1 to 10 | CC(C)(C)OC(=O)N[C@H](CC(=O)NC1c2ccccc2-c2c(-c3nc4cnccc4[nH]3)cccc21)C(N)=O (stereo partly drawn) [Example 59, tert-butyl ester of {(R)-1-carbamoyl-2-[4-(3H-imidazo[4,5-c]pyridin-2-yl)-9H-fluoren-9(R,S)-ylcarbamoyl]-ethyl}-carbamoic acid]
26 | 1 to 10 | NC(=O)C[C@@H](N)C(=O)NC1c2ccccc2-c2c(-c3nc4cnccc4[nH]3)cccc21 (stereo partly drawn) [Example 65, hydrochloride of (R)-2-amino-N1-[4-(3H-imidazo[4,5-c]pyridin-2-yl)-9H-fluoren-9(R,S)-yl]-succinamide]
27 | < 1 | O=C(NC1c2ccccc2-c2c(-c3nc4ccncc4[nH]3)cccc21)c1ccnc2[nH]ccc12 (racemic) [Example 92, [4-(3H-imidazo[4,5-c]pyridin-2-yl)-9H-fluoren-9(R,S)-yl]amide of 1H-pyrrolo[2,3-b]pyridine-4-carboxylic acid]
28 | 1 to 10 | O=C(OC1c2ccccc2-c2c(-c3nc4ccncc4[nH]3)cccc21)c1cccc2ncccc12 (racemic) [Example 124, 4-(3H-imidazo[4,5-c]pyridin-2-yl)-9H-fluoren-9(R,S)-yl of 5-quinolinecarboxylic acid]
29 | 1 to 10 | CC(C)(C)OC(=O)N[C@@H](CC(N)=O)C(=O)NC1c2ccccc2-c2c(-c3nc4cnccc4[nH]3)cccc21 (stereo partly drawn) [Example 57, tert-butyl ester of {(S)-2-carbamoyl-1-[4-(3H-imidazo[4,5-c]pyridin-2-yl)-9H-fluoren-9(R,S)-ylcarbamoyl]-ethyl}-carbamoic acid]
30 | 1 to 10 | O=C(NC1c2ccccc2-c2c(-c3nc4ccncc4[nH]3)cccc21)c1cccc2c1C=CCO2 (racemic) [Example 38, [4-(3H-imidazo[4,5-c]pyridin-2-yl)-9H-fluoren-9(R,S)-yl]amide trifluoroacetate of 2H-1-benzopyran-5-carboxylic acid]
31 | 10 to 100 | C[C@@H](C(=O)N[C@@H]1c2ccccc2-c2c(-c3nc4ccncc4[nH]3)cccc21)c1cccnc1 (racemic) [Example 100, N-[4-(3H-imidazo[4,5-c]pyridin-2-yl)-9H-fluoren-9(R,S)-yl]-2(R,S)-(pyridin-3-yl)-propionamide]
32 | 10 to 100 | O=C(NCc1ccc(F)cc1)NC1c2ccccc2-c2c(-c3nc4ccncc4[nH]3)cccc21 (racemic) [Example 75, 1-(4-fluorobenzyl)-3-[4-(3H-imidazo[4,5-c]pyridin-2-yl)-9H-fluoren-9(R,S)-yl]-urea]

Row | SMILES | IC50 [µM]
33 | c1ccc2c(c1)-c1c(-c3nc4ccncc4[nH]3)cccc1C2NCc1cccc2ncccc12 (racemic) [Example 26, trifluoroacetate of N-[4-(3H-imidazo[4,5-c]pyridin-2-yl)-9H-fluoren-9(R,S)-yl]-quinolin-5-yl-methylamine] | 1 to 10

— US7674795B2, “Fluorene derivatives, composition containing said derivatives and the use thereof” (Aventis Pharma SA, priority 2005, dated 2010)
